Patent US20230183246A1, “CONTINUOUS FLOW SONOGASHIRA COUPLING SYNTHESIS METHOD” (Purdue Research Foundation, priority 2020, published 2023)
Where “and” joins values, the source holds several entries; their conditions need not be identical. Equal values may be shown once.

Columns and labels:
[1] = test system: FLT-3; conditions: cited from earlier work
[2] = test system: RET and its mutant forms; conditions: compared with reported RET inhibitors; cited from earlier work
[3] = solubility in DMF; type: physicochemical
Method: The reaction set-up used a T-mixer at 20° C. prior to injecting the solution of 4 into the heated glass reactor chip that was held at 80 or 95° C. […] Based on these findings, we sought to modify our strategy for execution of this reaction in flow.

solubility ([3]; 20° C. in DMF)	solubility ([3]; 20° C. in DMF, after recrystallizing twice (EtOH, then EtOAc))	solubility ([3]; 55° C. in DMF)	SMILES	potency toward inhibition of all FLT-3 forms [1]	inhibition activity of RET and its mutant forms [2]
–	–	–	CN1CCN(Cc2ccc(NC(=O)c3cncc(C#Cc4cnc(N)c5ncccc45)c3)cc2C(F)(F)F)CC1 [HSN608, 5-((8-Amino-1,7-naphthyridin-5-yl)ethynyl)-N-(4-((4-methylpiperazin-1-yl)methyl)-3-(trifluoromethyl)phenyl)nicotinamide]	high potency	better than the reported RET inhibitors
14.6 mg/ml and 0.065 M	0.0785 M and 17.6 mg/ml	38.1 mg/ml and 0.170 M	Nc1ncc(Br)c2cccnc12 [compound 4, 5-bromo-8-amino-1,7-naphthyridine]	–	–
